These results are taken from ChEMBL document CHEMBL4004791, “Ceylonins A-F, Spongian Diterpene Derivatives That Inhibit RANKL-Induced Formation of Multinuclear Osteoclasts, from the Marine Sponge Spongia ceylonensis” (J Nat Prod, 2017).

A short description of data set [1]: (§1) Inhibition of RANKL-induced osteoclastogenesis in mouse RAW264 cells at 50 uM after 4 days by TRAP staining based assay relative to control. The format is functional. The settings on record: RAW264.7, 96 h.
The test system of data set [2] is RAW264. The data set is described as follows: Inhibition of RANKL-induced osteoclastogenesis in mouse RAW264 cells after 4 days by TRAP staining based assay. The format is functional, cell-based.
A short description of data set [3]: Cytotoxicity against mouse RAW264 cells at 50 uM. The format is cell-based. The settings on record: raw264, 50 µM.
The test system of data set [4] is RAW264. The description is as §1. Format: functional.

Active and inactive are the calls of the source. The rule behind the calls is not given here.

A word on the inhibition: it is the drop in the measured response relative to a control, in per cent. `C[C@]12CCC[C@](C)(C(=O)O)[C@@H]1CC[C@@]1(C)C3=C(CC[C@H]21)[C@H]1O[C@@H]3C[C@@H]1C(=O)O`: the inhibition at 50 µM in data set [1] was found to be 28%.
`C[C@]12CCC[C@](C)(C(=O)O)[C@@H]1CC[C@@]1(C)C3=C(CC[C@H]21)[C@@H]1C[C@@H](C(=O)O)[C@H]3O1` returned an inhibition at 50 µM in data set [1] of 31%.
As for `C[C@]12CCC[C@](C)(C(=O)O)[C@@H]1CC[C@@]1(C)C3=C(CC[C@H]21)[C@@H]1O[C@H]3C[C@@H]1C(=O)O`, the inhibition at 50 µM in data set [1] worked out at 70%. In addition, the inhibition result in the data set with RAW264 [2] is “Dose-dependent effect”. In addition, in data set [3], the Activity result was “Non-Toxic”.
Regarding `C[C@]12CCC[C@](C)(C(=O)O)[C@@H]1CC[C@@]1(C)c3cocc3CC[C@H]21`, the inhibition entry with RAW264 [4] was “inactive”.
In data set [1], `C[C@]12CCC[C@](C)(C(=O)O)[C@@H]1CC[C@@]1(C)C3=C(CC[C@H]21)[C@H]1C[C@H](C(=O)O)[C@@H]3O1` showed an inhibition at 50 µM of 47%.
